In ChEMBL document CHEMBL4706617, “Pyrimido[1,2-b]indazole derivatives: Selective inhibitors of human monoamine oxidase B with neuroprotective activity” (Eur J Med Chem, 2021):
Calls of active or inactive are those of the source. The rule behind the calls is not given here.

What was measured:
[1] = target: T1, Amine oxidase [flavin-containing] A (Homo sapiens, UniProt P21397); experiment: Inhibition of recombinant human MAO-A expressed in baculovirus infected BTI-TN-5B1-4 insect cells using p-tyramine as substrate preincubated for 15 mins followed by substrate addition and measured over 20 mins by horse-radish peroxidase/Amplex Red coupled fluorimetric analysis
T1 sequence (P21397 whole entry): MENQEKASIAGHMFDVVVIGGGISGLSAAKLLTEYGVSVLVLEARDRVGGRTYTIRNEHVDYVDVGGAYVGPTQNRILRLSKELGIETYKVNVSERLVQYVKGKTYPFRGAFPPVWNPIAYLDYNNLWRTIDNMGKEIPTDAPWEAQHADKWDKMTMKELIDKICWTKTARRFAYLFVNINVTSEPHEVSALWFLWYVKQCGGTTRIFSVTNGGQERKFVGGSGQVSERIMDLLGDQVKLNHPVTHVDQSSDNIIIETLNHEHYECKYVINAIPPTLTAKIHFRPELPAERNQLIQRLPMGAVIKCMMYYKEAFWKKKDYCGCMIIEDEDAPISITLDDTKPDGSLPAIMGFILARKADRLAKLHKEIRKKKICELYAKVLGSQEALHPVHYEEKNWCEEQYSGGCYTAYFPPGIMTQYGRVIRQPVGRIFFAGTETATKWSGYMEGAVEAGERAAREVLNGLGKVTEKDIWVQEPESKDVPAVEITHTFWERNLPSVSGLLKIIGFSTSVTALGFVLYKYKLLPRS

[2] = target: T2, Amine oxidase [flavin-containing] B (Homo sapiens, UniProt P27338); experiment: biochemical; type: cell-based, BTI-TN-5B1-4
T2 sequence (P27338 whole entry): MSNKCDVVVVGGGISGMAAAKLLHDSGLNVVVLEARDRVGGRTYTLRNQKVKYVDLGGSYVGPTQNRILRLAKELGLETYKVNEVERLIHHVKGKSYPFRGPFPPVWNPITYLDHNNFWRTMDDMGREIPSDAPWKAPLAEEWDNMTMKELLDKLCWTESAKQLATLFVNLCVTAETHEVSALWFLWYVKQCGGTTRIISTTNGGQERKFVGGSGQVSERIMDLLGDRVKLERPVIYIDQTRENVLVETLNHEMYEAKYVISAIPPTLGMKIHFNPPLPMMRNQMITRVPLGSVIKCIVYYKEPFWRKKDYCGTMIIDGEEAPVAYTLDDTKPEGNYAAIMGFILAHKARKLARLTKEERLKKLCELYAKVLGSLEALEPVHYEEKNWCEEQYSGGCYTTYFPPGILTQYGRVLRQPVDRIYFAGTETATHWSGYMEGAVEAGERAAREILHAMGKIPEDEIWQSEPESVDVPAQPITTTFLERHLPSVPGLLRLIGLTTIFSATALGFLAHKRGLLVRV
Description: Inhibition of recombinant human MAO-B expressed in baculovirus infected BTI-TN-5B1-4 insect cells using p-tyramine as substrate preincubated for 15 mins followed by substrate addition and measured over 20 mins by horse-radish peroxidase/Amplex Red coupled fluorimetric analysis

[3] = target: T2, Amine oxidase [flavin-containing] B; experiment: Competitive inhibition of recombinant human MAO-B expressed in baculovirus infected BTI-TN-5B1-4 insect cells using varying level of p-tyramine as substrate by Lineweaver-Burk plot analysis
SH-SY5Y [4] = experiment: Cytotoxicity against human SH-SY5Y cells assessed as reduction in metabolic activity up to 20 uM incubated for 24 hrs by MTS assay; type: ADME, cell-based
[5] = Cytotoxicity against human SH-SY5Y cells assessed as metabolic activity up to 100 uM incubated for 24 hrs by MTS assay relative to control; type: ADME, cell-based; details: read-out: Activity
SH-SY5Y [6] = experiment: Neuroprotective activity against 6-OHDA-induced cell death in human SH-SY5Y cells at 1 uM preincubated for 1 hr followed by 6-OHDA stimulation for 24 hrs by 7AAD staining based flow cytometric analysis; type: functional; details: time 25.0 hrs
SH-SY5Y [7] = experiment: Cytotoxicity against human SH-SY5Y cells assessed as reduction in metabolic activity at 50 to 100 uM incubated for 24 hrs by MTS assay; type: ADME, cell-based; details: dose 50-100 µM

| SMILES | IC50 [1] [µM] | IC50 [2] [µM] | Ki [3] [µM] | Activity (SH-SY5Y [4]) | viability at 24 h [5] [%] | Activity (SH-SY5Y [6]) | Activity (SH-SY5Y [7]) |
| --- | --- | --- | --- | --- | --- | --- | --- |
| Fc1ncccc1-c1cnc2c3ccccc3nn2c1 | 21.1 | 0.648 |  |  |  |  |  |
| CS(=O)(=O)c1ccc(-c2cnc3c4cccnc4nn3c2)cc1 | > 100 | 5.7 |  |  |  |  |  |
| Brc1cnc2c3cccnc3nn2c1 | > 100 | > 100 |  |  |  |  |  |
| CCOC(=O)c1ccc(-c2cnc3c4cccnc4nn3c2)cc1 | > 100 | 0.822 |  |  |  |  |  |
| CC(=O)c1ccc(-c2cnc3c4cccnc4nn3c2)cc1 | > 100 | 0.13 | 0.0765 | Non-Toxic | > 85 | Active |  |
| COc1ccc(-c2cnc3c4nccnc4nn3c2)cc1 | > 100 | 1.25 |  |  |  |  |  |
| C(=C\c1cnc2c3cccnc3nn2c1)/c1ccccc1 | > 100 | 0.837 |  |  |  |  |  |
| CSc1ccc(-c2cnc3c4ccccc4nn3c2)cc1 | > 100 | 0.065 | 0.0247 | Non-Toxic | > 85 |  |  |
| Clc1cccc2nn3cc(Br)cnc3c12 | > 100 | > 100 |  |  |  |  |  |
| COc1ccc(-c2cnc3c4c(Cl)cccc4nn3c2)cc1 | > 100 | 0.132 |  |  |  |  | Toxic |
| COc1ccc(-c2cnc3c4c(F)cccc4nn3c2)cc1 | > 100 | 0.062 | 0.0337 |  | > 85 |  |  |
| COc1ccc(-c2cnc3c4cccnc4nn3c2)cc1 | > 100 | 0.818 |  |  |  |  |  |
| O=[N+]([O-])c1ccc2nn3cc(Br)cnc3c2c1 | > 100 | > 100 |  |  |  |  |  |
| c1csc(-c2cnc3c4cccnc4nn3c2)c1 | > 100 | 4.48 |  |  |  |  |  |
| Brc1cnc2c3ncccc3nn2c1 | > 100 | > 100 |  |  |  |  |  |
| COc1ccccc1-c1cnc2c3cccnc3nn2c1 | > 100 | 3.79 |  |  |  |  |  |

| SMILES | IC50 [1] [µM] | IC50 [2] [µM] | Ki [3] [µM] | Activity (SH-SY5Y [4]) | viability at 24 h [5] [%] | Activity (SH-SY5Y [6]) | Activity (SH-SY5Y [7]) |
| --- | --- | --- | --- | --- | --- | --- | --- |
| COc1ccc(-c2cnc3c4ccccc4nn3c2)cc1 | > 100 | 0.215 |  | Non-Toxic |  |  | Toxic |
| COc1ccc2c3c([nH]c2c1)C(C)=NCC3 [HARMALINE] | 0.0329 | > 100 |  |  |  |  |  |
| FC(F)(F)c1cccc(-c2cnc3c4cccnc4nn3c2)c1 | > 100 | 1.02 |  |  |  |  |  |
| Brc1cnc2c3nccnc3nn2c1 | > 100 | > 100 |  |  |  |  |  |
| CCOC(=O)c1ccccc1-c1cnc2c3nccnc3nn2c1 | > 100 | > 100 |  |  |  |  |  |
| Brc1ccc2nn3cc(Br)cnc3c2c1 | > 100 | > 100 |  |  |  |  |  |
| c1ccc(-c2cnc3c4ncccc4nn3c2)cc1 | > 100 | 88.3 |  |  |  |  |  |
| COc1ccc(-c2cnc3c4ncccc4nn3c2)cc1 | > 100 | 0.236 | 0.107 | Non-Toxic |  | Active | Toxic |
| Fc1ccc(-c2cnc3c4cccnc4nn3c2)cn1 | > 100 | > 100 |  |  |  |  |  |
| FC(F)(F)c1ccc2c(c1)nn1cc(Br)cnc21 | > 100 | 1.17 |  |  |  |  |  |
| Brc1cnc2c3ccccc3nn2c1 | > 100 | > 100 |  |  |  |  |  |
| Brc1ccc2c(c1)nn1cc(Br)cnc21 | > 100 | > 100 |  |  |  |  |  |
| Fc1cccc2nn3cc(Br)cnc3c12 | > 100 | > 100 |  |  |  |  |  |
| c1cnc2c(c1)nn1cc(-c3ccsc3)cnc21 | > 100 | 14.8 |  |  |  |  |  |
| COc1cccc(-c2cnc3c4cccnc4nn3c2)c1 | > 100 | 0.397 |  |  |  |  |  |
